How the values were obtained:
HPK1 [1] = target: T1, HPK1 (Homo sapiens, UniProt Q92918); assay: Western blot analysis of endogenous HPK1 level in Jurkat T cells; format: cell-based
T1 construct: endogenous in cells; host or cells: Jurkat T cells

primary GFP+ Tregs = assay: IL-2 production by primary GFP+ Tregs in response to TCR engagement; format: cell-based; settings: stimulation by TCR engagement (FIG. 7)
HPK1 [2] = target: T2, HPK1 (Mus musculus, UniProt P70218); assay: HPK1 degradation in primary mouse T cells; format: cell-based; settings: 300 nM
T2 construct: HPK1 degraders could effectively degrade endogenous HPK1 in murine T cells; endogenous in cells; host or cells: primary mouse T cells
T2 sequence (P70218 1-827): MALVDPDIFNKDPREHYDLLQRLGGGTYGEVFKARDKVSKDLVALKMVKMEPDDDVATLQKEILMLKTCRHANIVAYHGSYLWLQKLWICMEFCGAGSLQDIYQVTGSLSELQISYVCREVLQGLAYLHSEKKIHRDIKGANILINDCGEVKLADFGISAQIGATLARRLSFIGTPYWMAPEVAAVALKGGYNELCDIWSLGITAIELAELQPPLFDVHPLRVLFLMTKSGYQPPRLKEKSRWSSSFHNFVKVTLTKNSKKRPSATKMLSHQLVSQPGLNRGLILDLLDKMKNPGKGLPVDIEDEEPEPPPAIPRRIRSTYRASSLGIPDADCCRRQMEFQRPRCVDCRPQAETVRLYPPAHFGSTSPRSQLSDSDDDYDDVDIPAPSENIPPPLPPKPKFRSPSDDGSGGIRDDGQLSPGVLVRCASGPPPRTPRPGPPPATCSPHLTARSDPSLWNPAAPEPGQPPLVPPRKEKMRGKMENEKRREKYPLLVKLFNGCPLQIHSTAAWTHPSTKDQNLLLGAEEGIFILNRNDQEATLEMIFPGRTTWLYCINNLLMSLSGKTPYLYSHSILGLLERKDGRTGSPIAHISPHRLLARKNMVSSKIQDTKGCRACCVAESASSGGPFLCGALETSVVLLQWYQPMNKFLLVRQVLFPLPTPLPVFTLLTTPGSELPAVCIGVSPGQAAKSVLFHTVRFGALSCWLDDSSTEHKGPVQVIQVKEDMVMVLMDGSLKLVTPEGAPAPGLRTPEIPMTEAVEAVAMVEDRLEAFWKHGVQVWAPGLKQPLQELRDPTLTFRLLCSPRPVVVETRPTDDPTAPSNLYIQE
Protocol: (§1) EXAMPLE 348. Several compounds according to the present invention employing the indolin-2-one HPK1 binding base, (which henceforth shall be referred to as the HC58 series, the HC65 series and the HC75 series) were assessed on their abilities to degrade HPK1 and produce an elevated IL-2 response profile upon stimulation by anti-CD3- and anti-CD28-mAb-mediated (CD3XCD28) stimulation (FIGS. 1-4). The elevated IL-2 response profile induced by TCR engagement after exposure to HC58 series of HPK1 degraders is shown in FIG. 1. […] A select sub-set of the lead HPK1 degraders from the HC58 series were further characterized to determine whether they could degrade primary mouse T cells.
EXAMPLE 353. HPK1 is expressed in all hematopoietic cells examined to date, including T cells, B cells, dendritic cells and neutrophils. Because the breath of therapeutic approaches might involve the use of Chimeric Antigen Receptor (CAR) T cells, dendritic cells, TCR transgenic T cells and Tumor Infiltrating Lymphocytes (TILs), selected HPK1 degraders were evaluated to determine whether they could degrade HPK1 effectively in some of these cell types. […] Potent degradation of HPK1 by HPK1 degraders was also observed in the human DC1 dendritic cells.

primary murine T cells [3] = assay: IL-2 production by primary murine T cells; format: cell-based, mouse
Protocol: as §1

primary murine T cells [4] = assay: Proliferation of primary murine T cells; format: cell-based, mouse
Protocol: as §1

CD4+eGFP+ Tregs = assay: IL-2 production by regulatory T cells (Tregs) on CD3XCD28 stimulation (IL-2 ELISA); format: cell-based, mouse; settings: compared with HPK1-/- Tregs
Description: EXAMPLE 350. It was observed that HPK1^−/− regulatory T cells (Treg), unlike their wild type counterparts, could readily produce IL-2 in response to CD3XCD28 stimulation. Taking advantage of the FoxP3-driven eGFP reporter mice that express eGFP only in the FoxP3^+ regulatory T cells (Tregs), bonafide Tregs were purified from spleens and lymph nodes by FACS-assisted sorting of CD4^+eGFP^+ Tregs and used as the source of ex vivo functional studies. The ability of the wild type Treg, the HPK1^−/− Tregs and the HC58-78-treated wild type Tregs to produce IL-2 in response to CD3XCD28 stimulation was compared. […] Wild type regulatory T cells could not produce the IL-2 in response to the same stimulation due to the transcriptional repression of the IL-2 locus by the FoxP3 transcription factor (FIG. 7, the white histogram bar).

human PBMCs = assay: Intracellular IFNγ and TNFα staining of human PBMC (FACS); format: cell-based; settings: in combination with blinatumomab
Description: EXAMPLE 355. One of the mechanisms employed by PBMC to kill their target cells is by releasing IFNγ and TNFα production. These inflammatory cytokines are known have potent cytolytic effects on cancer cells. […] Mediated PBMC killing of the Raji cells is most evident at PBMC:Raji ratio of 5:1 (FIG. 13).
To determine the number of CD19^+ Raji cells killed by human PBMC that were activated by the Blinatumomab-mediated activation, we used CountBright cell counting beads to estimate the number of cells remained after 72 hours of co-culturing of PBMC and Raji. As for the intracellular staining of the TNFα and the IFNγ, the standard para-formaldehyde-based “fix and perm” procedure was used in order to quantitate the amount of intracellular cytokine trapped inside the cells by brefeldin A. FACS analysis of stained cells is performed by BD's LSR II FACS.

T1 sequence (Q92918 whole entry): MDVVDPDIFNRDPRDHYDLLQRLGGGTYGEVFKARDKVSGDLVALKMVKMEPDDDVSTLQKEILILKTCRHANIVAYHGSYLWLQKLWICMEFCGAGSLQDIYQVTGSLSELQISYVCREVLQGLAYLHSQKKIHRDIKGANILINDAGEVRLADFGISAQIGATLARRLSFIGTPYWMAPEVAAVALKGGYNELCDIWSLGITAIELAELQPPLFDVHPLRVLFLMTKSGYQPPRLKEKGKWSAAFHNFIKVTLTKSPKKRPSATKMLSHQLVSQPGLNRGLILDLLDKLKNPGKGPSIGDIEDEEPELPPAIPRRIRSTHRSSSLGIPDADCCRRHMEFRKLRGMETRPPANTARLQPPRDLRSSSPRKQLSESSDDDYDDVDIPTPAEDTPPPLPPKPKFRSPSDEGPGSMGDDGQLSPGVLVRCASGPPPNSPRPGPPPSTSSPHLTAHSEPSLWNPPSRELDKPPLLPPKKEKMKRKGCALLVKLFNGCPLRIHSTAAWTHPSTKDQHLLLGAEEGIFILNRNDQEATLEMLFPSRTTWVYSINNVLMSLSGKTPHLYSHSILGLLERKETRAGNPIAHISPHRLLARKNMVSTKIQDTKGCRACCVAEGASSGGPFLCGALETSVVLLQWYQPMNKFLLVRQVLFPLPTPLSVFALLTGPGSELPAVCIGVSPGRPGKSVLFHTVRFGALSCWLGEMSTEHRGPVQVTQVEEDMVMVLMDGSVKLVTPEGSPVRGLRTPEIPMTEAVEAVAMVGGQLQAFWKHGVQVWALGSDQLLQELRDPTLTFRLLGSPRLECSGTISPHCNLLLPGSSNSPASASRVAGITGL

Cc1[nH]c(/C=C2\C(=O)Nc3ccc(F)cc32)c(C)c1C(=O)NCCCN1CCN(CC(=O)NCCCCCCCCNc2cccc3c2C(=O)N(C2CCC(=O)NC2=O)C3=O)CC1 (centres unmarked) [HC58-78, (Z)—N-(3-(4-(2-((8-((2-(2,6-dioxopiperidin-3-yl)-1,3-dioxoisoindolin-4-yl)amino)octyl)amino)-2-oxoethyl)piperazin-1-yl)propyl)-5-((5-fluoro-2-oxoindolin-3-ylidene)methyl)-2,4-dimethyl-1H-pyrrole-3-carboxamide]
endogenous level of HPK1 (HPK1 [1]; Jurkat T cells, multiple day post exposure (FIG. 3)): could reduce the endogenous level of HPK1 | reducing HPK1 protein levels (HPK1 [1]; characterization of exemplary degraders (FIGS. 1-14)): especially effective in reducing HPK1 protein levels | IL-2 production (primary GFP+ Tregs): elevated IL-2 production | degradation of HPK1 protein in primary T cells compared with Jurkat T cells (HPK1 [2]): could degrade more HPK1 protein in primary T cells than in Jurkat T cells | IL-2 production compared with the DMSO-treated counterpart (primary murine T cells [3]): produced more IL-2 than the DMSO-treated counterpart | proliferation compared with the DMSO-treated counterpart (primary murine T cells [4]): proliferate much more quickly than the DMSO-treated counterpart | IL-2 production by treated wild type Tregs (CD4+eGFP+ Tregs): produced IL-2 at level comparable to that produced by HPK1^−/− Tregs | percentage of human PBMCs that express high level of IFNγ and TNFα (human PBMCs): significantly increased

Reference: patent US12465648B2, “Heterobifunctional compounds as degraders of HPK1” (ICAHN SCHOOL OF MEDICINE AT MOUNT SINAI, priority 2019, dated 2025)
